Data published in patent publication US6787569B1, “Therapeutic guanidines” (Cambridge NeuroScience, Inc., priority 1994, dated 2004).

system: depolarization-induced 3H-glutamate release from brain nerve terminals; experiment: Inhibition of 3H-glutamate release, high [K+] depolarization, rapid superfusion of synaptosomes; format: biochemical; settings: 0.1 μM compound, rat brain synaptosomes

SMILES	% Inhibition of ^3H-Glu Rel @ 0.1 μM [%]
CCC(C)c1ccc(N(Cc2ccc(C(C)(C)C)cc2)C(=N)Nc2ccc(Cl)cc2)cc1.Cl (stereo not drawn) [Example 86, N-(4-sec-Butylphenyl)-N-(4-tert-butylbenzyl)-N′-(4-chlorophenyl)guanidine.HCl]	16

same assay, conditions: 0.3 μM compound, rat brain synaptosomes

SMILES	% Inhibition of ^3H-Glu Rel @ 0.3 μM [%]
CCCC(Cc1ccccc1)c1cccc(NC(=N)Nc2ccc(C(C)(C)C)cc2)c1.CS(=O)(=O)O (stereo not drawn) [Example 100, N-(3-(1′-Benzylbutyl)phenyl)-N′-(4-tert-butylphenyl)guanidine.mesylate]	20
CCCCCCc1ccc(N(Cc2ccc(C(C)(C)CCC)cc2)C(=N)Nc2ccccc2)cc1.Cl [Example 90, N-(4-Hexylphenyl)-N-(4-tert-hexylbenzyl)-N′-phenylguanidine.HCl]	42
CCC(C)c1ccc(N(C)C(=N)N(Cc2ccc(C(C)(C)C)cc2)c2ccc(C(C)(C)C)cc2)cc1.Cl (stereo not drawn) [Example 83, N-(4-tert-Butylphenyl)-N-(4-tert-butylbenzyl)-N′-(4-sec-butylphenyl)-N′-(methyl)guanidine.HCl]	31
CCCCOc1ccc(NC(=N)Nc2ccc(C(C)(C)C)cc2)cc1OCCCC.O=C(O)C(=O)O [Example 107, N-(3,4-Bis-butyloxyphenyl)-N′-(4-tert-butylphenyl)guanidine.oxalate]	34
Br.CCCCOc1cc(NC(=N)Nc2ccc(OC)c(OCCCC)c2)ccc1OC [Example 109, N,N′-Bis-((3-butoxy-4-methoxy)phenyl)guanidine.HBr]	86
CCCCOc1ccc(N(Cc2ccc(C(C)(C)C)cc2)C(=N)Nc2ccccc2)cc1.Cl [Example 87, N-(4-Butoxylphenyl)-N-(4-tert-butylbenzyl)-N′-(phenyl)guanidine.HCl]	36
CCC(C)c1ccc(N(Cc2ccc(C(C)(C)C)cc2)C(=N)Nc2ccc(Cl)cc2)cc1.Cl (stereo not drawn) [Example 86, N-(4-sec-Butylphenyl)-N-(4-tert-butylbenzyl)-N′-(4-chlorophenyl)guanidine.HCl]	45
CCC(C)c1ccc(N(Cc2ccc(C(C)(C)C)cc2)C(=N)NN2C(C)COCC2C)cc1.Cl (stereo not drawn) [Example 82, N-(4-sec-Butylphenyl)-N-(4-tert-butylbenzyl)-N′-(3,5-dimethyl-4-morpholinyl)guanidine.HCl]	60
CN(C(=N)Nc1ccc(OCc2ccccc2)cc1)c1ccc(OCc2ccccc2)cc1.CS(=O)(=O)O [Example 132, N,N′-Bis(4-benzyloxyphenyl)-N′-methylguanidine.mesylate]	22
CN(C(=N)Nc1cccc(OCc2ccccc2)c1)c1cccc(OCc2ccccc2)c1.Cl [Example 141, N,N′-Bis(3-benzyloxyphenyl)-N′-methylguanidine.HCl]	67
CCCCOc1ccc(N(Cc2ccc(C(C)(C)C)cc2)C(=N)NC2CCNCC2)cc1.Cl [Example 77, N-(4-Butoxyphenyl)-N-(4-tert-butylbenzyl)-N′-(4-piperidinyl)guanidine.HCl]	44
N=C(Nc1ccc(OCc2ccccc2)cc1)Nc1ccc(SCc2ccccc2)cc1 [N-(4-benzyloxyphenyl)-N′-(4-benzylthiophenyl)guanidine]	81
CCC(C)c1ccc(N(Cc2ccc(C(C)(C)C)cc2)C(=N)N2CCc3ccccc3C2)cc1.Cl (stereo not drawn) [Example 80]	68
Br.N=C(Nc1ccc(Oc2ccccc2)cc1)Nc1ccc(Oc2ccccc2)cc1 [Example 138, N,N′-Bis(4-phenoxyphenyl)guanidine.HBr]	57
CN(C(=N)Nc1ccc(C(C)(C)C)cc1)c1ccc(OCc2ccccc2)cc1.CS(=O)(=O)O [Example 95, N-Methyl-N-4-benzyloxyphenyl-N′-(4-tert-butylphenyl)guanidin.mesylat]	44
CCC(C)c1ccc(N(Cc2ccc(C(C)(C)C)cc2)C(=N)N2CCC(Cc3ccccc3)CC2)cc1.CS(=O)(=O)O (stereo not drawn) [Example 78]	22
CCC(C)c1ccc(N(Cc2ccc(C(C)(C)C)cc2)C(=N)NN2CCOCC2)cc1.Cl (stereo not drawn) [Example 75, N-(4-sec-Butylphenyl)-N-(4-tert-butylbenzyl)-N′-(4-morpholinyl)guanidine.HCl]	42
CN(C(=N)Nc1cccc(OCc2ccccc2)c1)c1ccc(OCc2ccccc2)cc1 [N-(3-benzyloxyphenyl)-N′-(4-benzyloxyphenyl)-N′-methylguanidine]	55
CC(C)(C)c1ccc(NC(=N)Nc2ccc(OCc3ccccc3)cc2)cc1.Cl [Example 93, N-(4-Benzyloxyphenyl)-N′-(4-tert-butylphenyl)guanidine.HCl]	48

same assay, conditions: 1 μM compound, rat brain synaptosomes

SMILES	% Inhibition of ^3H-Glu Rel @ 1 μM [%]
CS(=O)(=O)O.N=C(Nc1ccc2c3c(cccc13)CC2)N1CCCc2ccccc21 [Example 7, N-(5-Acenaphthyl)-N′-(1,2,3,4-tetrahydroquinolinyl)guanidine.mesylate]	20
CCC(C)c1ccc(N(C)C(=N)N(Cc2ccc(C(C)(C)C)cc2)c2ccc(C(C)(C)C)cc2)cc1.Cl (stereo not drawn) [Example 83, N-(4-tert-Butylphenyl)-N-(4-tert-butylbenzyl)-N′-(4-sec-butylphenyl)-N′-(methyl)guanidine.HCl]	63
Cl.N=C(N)N(Cc1ccc(OCc2ccccc2)cc1)c1ccc2c3c(cccc13)CC2 [Example 65, N-(5-Acenaphthyl)-N-(4-benzyloxybenzyl)guanidine.HCl]	42
Cl.N=C(Nc1ccc2c3c(cccc13)CC2)NC(Cc1ccccc1)c1ccccc1 (stereo not drawn) [Example 41, N-(5-Acenaphthyl)-N′-(1,2-diphenylethyl)guanidine.HCl]	52
Cl.N=C(N)N(Cc1ccc(OCc2ccccc2)cc1)c1ccc(OCc2ccccc2)cc1 [Example 67, N-(4-Benzyloxyphenyl)-N-(4-benzyloxybenzyl)guanidine.HCl]	36
CCCCCOc1cccc(N(Cc2ccc(C(C)(C)C)cc2)C(=N)N)c1.Cl [Example 64, N-(3-Pentoxyphenyl)-N-(4-tert-butylbenzyl)guanidine.HCl]	41
CCC(C)c1cccc(N(Cc2ccc(C(C)(C)C)cc2)C(=N)N)c1.Cl (stereo not drawn) [Example 62, N-(3-sec-Butylphenyl)-N-(4-tert-butylbenzyl)guanidine.HCl]	22
CN(C(=N)Nc1ccc(C(C)(C)C)cc1)c1ccc(OCc2ccccc2)cc1.CS(=O)(=O)O [Example 95, N-Methyl-N-4-benzyloxyphenyl-N′-(4-tert-butylphenyl)guanidin.mesylat]	100
Br.N=C(Nc1cccc(-c2ccccc2)c1)Nc1cccc(-c2ccccc2)c1 [Example 30, N,N′-Bis(3-biphenyl)guanidine.HBr]	25
CCC(C)c1ccc(N(C)C(=N)N(Cc2ccc(C(C)(C)C)cc2)c2ccc(C(C)CC)cc2)cc1.Cl (stereo not drawn) [Example 84, N-(4-sec-Butylphenyl)-N-(4-tert-butylbenzyl)-N′-(4-sec-butylphenyl)-N′-(methyl)guanidine.HCl]	37
Cl.N=C(N)N(Cc1cccc(Oc2ccccc2)c1)c1ccc2c3c(cccc13)CC2 [Example 53, N-(5-Acenaphthyl)-N-(3-phenoxybenzyl)guanidine.HCl]	37
Br.CC(C)(C)c1cccc(NC(=N)Nc2cccc(C(C)(C)C)c2)c1 [Example 31, N,N′-Di-(3-tert-butylphenyl)guanidine.HBr]	24
Br.CCC(C)c1cccc(NC(=N)Nc2cccc(C(C)CC)c2)c1 (stereo not drawn) [Example 34, N,N′-Bis-(3-sec-butylphenyl)guanidine.HBr]	63
CC(C)(C)c1ccc(NC(=N)Nc2ccc(OCc3ccccc3)cc2)cc1.Cl [Example 93, N-(4-Benzyloxyphenyl)-N′-(4-tert-butylphenyl)guanidine.HCl]	91

same assay, conditions: 1 μM compound, rat brain synaptosomes, 1 µM

SMILES	% Inhibition of ^3H-Glu Rel @ 1 μM [%]
Br.CN(C(=N)N(C)c1ccc(C(C)(C)C)cc1)c1ccc(C(C)(C)C)cc1 [Example 36, N,N′-Bis(4-tert-butylphenyl)-N,N′-methylguanidine.HBr]	67

same assay, conditions: 3 μM compound, rat brain synaptosomes

SMILES	% Inhibition of ^3H-Glu Rel @ 3 μM [%]
CS(=O)(=O)O.N=C(Nc1ccc2c3c(cccc13)CC2)N1CCCc2ccccc21 [Example 7, N-(5-Acenaphthyl)-N′-(1,2,3,4-tetrahydroquinolinyl)guanidine.mesylate]	16
